{"source": "BindingDB's records for doi:10.7270/Q2JM286J", "about": "(Burnham Center For Chemical Genomics, 2012)", "molecular_target": "Prothrombin (Bos taurus, UniProt P00735)", "assay": "thrombin inhibition, dose response, biochemical, fluorescence polarization, uHTS hits (AID 602369)"}
{"compound": "O=C1N=C(Nc2ccc(Cl)cc2Cl)SC1=Cc1c[nH]c2ccccc12", "values": [{"measurement": "IC50", "result": 38.3, "unit": "µM"}]}
{"compound": "COC1=CC([N+](=O)[O-])=CC(/C=N/NC(=O)c2cc(-c3ccccc3)nc3ccccc23)C1=O", "note": "(stereo not given)", "values": [{"measurement": "IC50", "result": 75.1, "unit": "µM"}]}
{"compound": "COC1=CC(=Cc2c(C)[nH]n(-c3cccc(Br)c3)c2=O)C=C(OC)C1=O", "values": [{"measurement": "IC50", "result": 39, "unit": "µM"}]}
{"compound": "CN(CCO)c1ccc(CN=Nc2ccc([N+](=O)[O-])cc2S(=O)(=O)Nc2ccccc2C(=O)O)cc1", "values": [{"measurement": "IC50", "result": 36.4, "unit": "µM"}]}
{"compound": "O=c1c(Cl)c(N=NCc2ccc(Br)cc2)cnn1-c1ccccc1", "values": [{"measurement": "IC50", "result": "> 100", "unit": "µM"}]}
{"compound": "CCOC(=O)C1C(=O)C(=Cc2ccc(-c3ccccc3C(=O)O)o2)SC1=Nc1ccc(OC)cc1", "note": "(stereo not given)", "values": [{"measurement": "IC50", "result": 13.1, "unit": "µM"}]}
{"compound": "CC[n+]1c(CC=Nc2ccccc2)oc2ccc(OC)cc21", "values": [{"measurement": "IC50", "result": 55.6, "unit": "µM"}]}
{"compound": "O=C1C=CC([N+](=O)[O-])=CC1C=NN=C1NS(=O)(=O)c2ccccc21", "note": "(stereo not given)", "values": [{"measurement": "IC50", "result": 36.8, "unit": "µM"}]}
{"compound": "CCN(CC)CCOC(=O)c1ccc(N=CC(C#N)c2nc(-c3ccc4c(c3)OCO4)cs2)cc1", "note": "(stereo not given) [2-(diethylamino)ethyl 4-[[(Z)-2-[4-(1,3-benzodioxol-5-yl)-1,3-thiazol-2-yl]-2-cyano-ethenyl]amino]benzoate]", "values": [{"measurement": "IC50", "result": 56.1, "unit": "µM"}]}
{"compound": "Oc1csc(=S)n1N=Cc1ccc(Cl)s1", "note": "[3-[(5-chlorothiophen-2-yl)methylideneamino]-2-sulfanylidene-1,3-thiazolidin-4-one]", "values": [{"measurement": "IC50", "result": 27.1, "unit": "µM"}]}
{"compound": "CC(=O)C1C(=O)OC(=CC=Cc2ccccc2)C1=O", "note": "(stereo not given) [3-acetyl-5-cinnamylidene-4-hydroxy-2-furanone]", "values": [{"measurement": "IC50", "result": 50.4, "unit": "µM"}]}
{"compound": "C=c1[nH]n(-c2nnc(C)c(=O)[nH]2)c(=O)c1=Cc1ccc(N(CC)CC)cc1", "note": "[3-{4-[1-(4-Diethylamino-phenyl)-meth-(Z)-ylidene]-3-methyl-5-oxo-4,5-dihydro-pyrazol-1-yl}-6-methyl-4H -[1,2,4]triazin-5-one]", "values": [{"measurement": "IC50", "result": 49.9, "unit": "µM"}]}
{"compound": "NS(=O)(=O)c1ccc(N=CCC(=O)c2ccc3ccccc3c2)cc1", "note": "[4-(3-Naphthalen-2-yl-3-oxo-propenylamino)-benzenesulfonamide]", "values": [{"measurement": "IC50", "result": 56.5, "unit": "µM"}]}
{"compound": "CSc1nsc(CC=Nc2ccc(C(=O)O)cc2)c1C#N", "note": "[4-({2-[4-cyano-3-(methylsulfanyl)-5-isothiazolyl]vinyl}amino)benzenecarboxylic acid]", "values": [{"measurement": "IC50", "result": 27.6, "unit": "µM"}]}
{"compound": "CC1(C)CC(=O)C(=CNCC2CCN(C(=O)Cc3ccccc3)CC2)C(=O)C1", "note": "[5,5-dimethyl-2-[[[1-(2-phenylacetyl)piperidin-4-yl]methylamino]methylidene]cyclohexane-1,3-dione]", "values": [{"measurement": "IC50", "result": "> 100", "unit": "µM"}]}
{"compound": "CC(c1sc(S)nc1O)c1sc(S)nc1O", "note": "[5-[1-(4-oxidanylidene-2-sulfanylidene-1,3-thiazolidin-5-yl)ethyl]-2-sulfanylidene-1,3-thiazolidin-4-one]", "values": [{"measurement": "IC50", "result": 52.4, "unit": "µM"}]}
{"compound": "CC1=NC(=O)NC(c2ccc(N3CCOCC3)cc2)C1C(=O)c1ccccc1", "note": "(stereo not given) [5-benzoyl-6-methyl-4-[4-(4-morpholinyl)phenyl]-3,4-dihydro-1H-pyrimidin-2-one]", "values": [{"measurement": "IC50", "result": 15.5, "unit": "µM"}]}
{"compound": "COC1=CC([N+](=O)[O-])=CC(/C=N/NC(=O)c2cncc(Br)c2)C1=O", "note": "(stereo not given) [5-bromo-N'-[(E)-(5-methoxy-3-nitro-6-oxo-1-cyclohexa-2,4-dienylidene)methyl]-3-pyridinecarbohydrazide]", "values": [{"measurement": "IC50", "result": 39.1, "unit": "µM"}]}
{"compound": "Cc1[nH]n(-c2ccccc2)c(=O)c1C=C1NC(=S)NC1=O", "note": "[5-methyl-4-[(Z)-(5-oxo-2-sulfanylideneimidazolidin-4-ylidene)methyl]-2-phenyl-4H-pyrazol-3-one]", "values": [{"measurement": "IC50", "result": 52.8, "unit": "µM"}]}
{"compound": "O=C1c2ccccc2SC1/C=N/c1cc([N+](=O)[O-])ccc1O", "note": "(stereo not given) [(2Z)-2-[[(5-nitro-2-oxidanyl-phenyl)amino]methylidene]-1-benzothiophen-3-one]", "values": [{"measurement": "IC50", "result": 2.57, "unit": "µM"}]}
{"compound": "Cc1[nH]c2ccccc2c1/C=C1\\N=C(c2ccccc2)OC1=O", "note": "[(4Z)-4-[(2-methyl-1H-indol-3-yl)methylidene]-2-phenyl-5-oxazolone]", "values": [{"measurement": "IC50", "result": 7.22, "unit": "µM"}]}
{"compound": "C=CCN1C(=O)C(/C=N/c2cccc([N+](=O)[O-])c2)C(=O)N(CCCC)C1=O", "note": "(stereo not given) [MLS000543529]", "values": [{"measurement": "IC50", "result": 42.7, "unit": "µM"}]}
{"compound": "O=[N+]([O-])c1ccc(N=NCc2c[nH]c3ccccc23)cc1", "note": "[MLS000573812]", "values": [{"measurement": "IC50", "result": 2.05, "unit": "µM"}]}
{"compound": "O=[N+]([O-])c1ccc(N=NCc2ccc[nH]2)cc1", "note": "[MLS000595102]", "values": [{"measurement": "IC50", "result": 9.84, "unit": "µM"}]}
{"compound": "COc1cc2c3c(c1)C(C)=CC(C)(C)N3C(=O)C2=O", "note": "[MLS000688351]", "values": [{"measurement": "IC50", "result": 11.4, "unit": "µM"}]}
{"compound": "C=C(C=C(C)c1sc(S)nc1O)c1sc(S)nc1O", "note": "[MLS000723803]", "values": [{"measurement": "IC50", "result": 87.5, "unit": "µM"}]}
{"compound": "C=c1[nH]c2ccc(C)cc2c1=Cc1c(N)n2oc(C)cc2nc1=O", "note": "[MLS000730959]", "values": [{"measurement": "IC50", "result": 32.1, "unit": "µM"}]}
{"compound": "O=C(N/N=C/C1C=C([N+](=O)[O-])C=CC1=O)c1cc(-c2ccccc2)nc2ccccc12", "note": "(stereo not given) [N'-[(E)-(3-nitro-6-oxo-1-cyclohexa-2,4-dienylidene)methyl]-2-phenyl-4-quinolinecarbohydrazide]", "values": [{"measurement": "IC50", "result": 10.7, "unit": "µM"}]}
{"compound": "COc1cc(C=c2[nH]c3n(c2=O)CCCCC=3)ccc1O", "note": "[SMR000149996]", "values": [{"measurement": "IC50", "result": 29.7, "unit": "µM"}]}
{"compound": "O=[N+]([O-])c1ccc(N=NCc2cccn2-c2ccccc2)nc1", "note": "[SMR000161089]", "values": [{"measurement": "IC50", "result": 29.5, "unit": "µM"}]}
{"compound": "COc1cc(C=CC(=O)C2C(=O)NC(=O)N(CCc3ccccc3)C2=O)ccc1O", "note": "(stereo not given) [SMR000221203]", "values": [{"measurement": "IC50", "result": 40.6, "unit": "µM"}]}
{"compound": "Cc1cc(=O)[nH]c(N=NCc2c(O)n(-c3ccccc3)c(=O)c3ccccc23)n1", "note": "[SMR000221270]", "values": [{"measurement": "IC50", "result": 37.2, "unit": "µM"}]}
{"compound": "O=C(N/N=C/C1C=C(Cl)C=C([N+](=O)[O-])C1=O)c1ccccc1NS(=O)(=O)c1cccs1", "note": "(stereo not given) [SMR000364876]", "values": [{"measurement": "IC50", "result": 85.5, "unit": "µM"}]}
{"compound": "CCN(CC)CCOC(=O)c1ccc(N=CC(C#N)c2nc(-c3ccc(OC)c(OC)c3)cs2)cc1", "note": "(stereo not given) [SMR000434079]", "values": [{"measurement": "IC50", "result": 28.7, "unit": "µM"}]}
{"compound": "CCCCCCCCCCCC1N=C(N)N=C(CCCO)C1C(=O)OC", "note": "(stereo not given) [SMR001565729]", "values": [{"measurement": "IC50", "result": 42.3, "unit": "µM"}]}
